# Data as given in patent publication US6221847A, “Composition and method for treating bacterial infection” (Clemson University, priority 1999, dated 2001).
# Legend:
# Type in all cases: cell-based
# [1] = system: Propionibacterium granulosum ATCC 25564; assay: Broth culture growth with nisin; conditions: 400 International Units per milliliter, anaerobic, 37° C., 24 hours
# Method: (§1) Nisin at a final concentration of 400 International Units per milliliter was also added to broth cultures of each of the above bacteria strains. The broth cultures were incubated anaerobically at 37° C. for 24 hours.
# [2] = system: Propionibacterium acnes ATCC 6919; assay: Broth culture growth with nisin; conditions: 400 International Units per milliliter, anaerobic, 37° C., 24 hours
# Method: as §1
# [3] = system: Propionibacterium avidum ATCC 25577; assay: Broth culture growth with nisin; conditions: 400 International Units per milliliter, anaerobic, 37° C., 24 hours
# Method: as §1
# [4] = system: Propionibacterium acnes ATCC 11827; assay: Broth culture growth with nisin; conditions: 400 International Units per milliliter, anaerobic, 37° C., 24 hours
# Method: as §1
# [5] = system: Propionibacterium granulosum ATCC 25564; assay: Spot on lawn method (Example IV), nisin; conditions: 4,000 International Units per milliliter
# Method: (§2) Propionibacterium acnes, Propionibacterium granulosum, or other cutaneous propionibacteria to be examined for sensitivity to the bacteriocin are grown in actinomyces broth at 37° C. for 2 days under anaerobic conditions. Cultures (15 μL) being examined for sensitivity are added to soft actinomyces agar (5 ml) and the mixture is applied uniformly over each actinomyces agar plate. Preparations concentrated so as to contain 6,400 Activity Units/ml of bacteriocins are spotted (25 μl spots) onto the surface of the prepared plates. These plates are held at 37° C. for 2 days under anaerobic conditions to permit growth of the cutaneous culture and examined for zones of inhibition (lack of growth) where the bacteriocin was applied. Zones are evidence of bacteriocin inhibition.
# (§3) Specifically, a solution of nisin containing 4,000 International Units per milliliter was tested for activity against Propionibacterium acnes ATCC 6919, Propionibacterium acnes ATCC 11827, Propionibacterium avidum ATCC 25577 and Propionibacterium granulosum ATCC 25564 according to the method described in Example IV above. It was observed that nisin inhibited all of the cutaneous cultures.
# [6] = system: Propionibacterium acnes ATCC 6919; assay: Spot on lawn method (Example IV), nisin; conditions: 4,000 International Units per milliliter
# Method: as §2, §3
# [7] = system: Propionibacterium avidum ATCC 25577; assay: Spot on lawn method (Example IV), nisin; conditions: 4,000 International Units per milliliter
# Method: as §2, §3
# [8] = system: Propionibacterium acnes ATCC 11827; assay: Spot on lawn method (Example IV), nisin; conditions: 4,000 International Units per milliliter
# Method: as §2, §3
substance,measurement,setting,value
nisin,growth of broth culture,[1],markedly reduced the growth
same,growth of broth culture,[2],markedly reduced the growth
same,growth of broth culture,[3],markedly reduced the growth
same,growth of broth culture,[4],markedly reduced the growth
same,inhibition (zones),[5],inhibited
same,inhibition (zones),[6],inhibited
same,inhibition (zones),[7],inhibited
same,inhibition (zones),[8],inhibited
